Results published in US6800481B1, “Stable macroscopic membranes formed by self-assembly of amphiphilic peptides and uses therefor” (priority 1992, dated 2004).
“Also recorded” adds a separate entry of the source. Like-named read-outs stand apart in the source and are kept apart here. Residues, ends and D or L forms follow the SMILES beside them.

How the values were obtained:
PC12 cells = experiment: In vitro neurite outgrowth on peptide membranes; assay type: cell-based, rat
Method: The suitability of these materials for supporting in vitro neurite outgrowth was tested by treating biomaterial-attached PC12 cells with nerve growth factor (NGF). This treatment induces PC12 cells to differentiate into sympathetic neurons which can send out long processes called neurites. There was a marked difference in the neurite promoting properties of the two materials tested (EAK16 and RAD16).
Nerve growth factor differentiated PC12 cells have been used extensively in studies of neurite outgrowth. PC12 cells upregulate the number of calcium-dependent and -independent cell adhesion receptors in response to nerve growth factor. Cell attachment and neurite outgrowth from nerve growth factor differentiated PC12 cells was examined on membranes of RAD16 and EAK16 in order to determine whether membranes containing RGD-like sequences would preferentially support these cell activities. Neurite outgrowth on peptide membranes is of interest for potential applications of nerve repair.
Untreated PC12 cells were introduced to peptide membranes of EAK16 and RAD16 suspended in 85% RMMP1, 10% heat inactivated horse serum, 5 fetal bovine serum. Half of the cells were treated with nerve growth factor (50 ng/ml, NGF) and were supplemented with NGF every 3-4 days for 14 days. […] The neurite outgrowth reached greater than 400 μm in length, approximately 15-20 times the cell body, following the contour of the matrices in a three dimensional network.

[1] = Testing of peptides for macroscopic membrane formation (phase-contrast microscope, Congo Red staining); assay type: physicochemical
From the text: The effect of length and sequence on membrane formation was examined using several peptides (Table 1 and Example 3). […] Very long peptides, e.g., of about 200 amino acids, may encounter problems due to insolubility and intramolecular interactions which destabilize membrane formation. […] The optimal lengths for membrane formation will probably vary with the amino acid composition.
The EAK12 and EAK16 tested for membrane formation were acetylated and aminylated at both N- and C-terminal ends. […] The peptides were initially dissolved in water (5 mg/ml) or in 23% acetonitrile (10 mg/ml). A volume of 5-10 microliters of the dissolved peptides were applied to the DMEM medium, PBS or water. The formation of the membrane was first observed under a phase-contrast microscope and then, by the naked eye after staining with Congo Red.

[2] = system: NGF differentiated PC12 cells, retonic acid-differentiated human neuroblastoma and mouse cerebellum granule cells; experiment: Neurite outgrowth on biopolymers, several neuronal cell types; assay type: cell-based
From the text: The invention further relates to the regeneration of nerves with filaments of the membranes of the present invention. Nerve regeneration can be promoted and directed by transplanting filaments of RAD16 along the correct path to their targets. This would be extremely useful for patients with severed peripheral nerves. Such a technology could be refined to help people with spinal cord injuries.

[3] = Nucleotide hydrolysis activity; assay type: biochemical
From the text: In addition, the ability of small peptides such as EAK16 to self-assemble into membranes may be useful in origin of life studies related to cell membranes and cellular compartmentalization. […] This activity is probably due to the ability of lysine and glutamic acid side-chains to perform general acid and base catalysis.

[4] = assay type: physicochemical; conditions: for [θ2] λ2 195 nm / −[θ1] λ1 218 nm: 8 μM in water
Method: Circular dichroism (CD) spectra were taken on an Aviv Model 60DS spectropolarimeter using program 60HDS for data processing. Because EAK16 contains both positively and negatively charged residues, the peptide itself can serve as a buffer. CD samples were prepared and measured at 25° C., unless otherwise indicated. All reagents were ultrapure and solutions were filtered through a […] before use. Circular dichroism (CD) spectroscopy was used to monitor the stability of the β-sheet structure of EAK16 under various conditions. Dilute […] concentrations. […] A 3 mM stock EAK16 solution was mixed in water to a concentration of 20 μM, allowed to equilibrate, and the CD spectrum measured. The solution was then diluted five times by two-fold serial dilutions to final concentrations of […], 10, 5.0, 2.5, 1.25 and 0.625 μM, allowed to equilibrate and CD spectra taken. […] Temperature. The CD spectra of 8 μM EAK16 at 25, 37, 55, 70 and 90° C. in water were measured. […] EAK16 has a calculated pI Of 6.71. It was assumed that changes of pH would have a great effect on the β-sheet structure, especially when the charged groups are neutralized. […] The 3 mM stock solution of EAK16 was mixed with pH buffers at pH 1.5, 3, 7, and 11 to a final concentration of 10 μM and allowed to equilibrate for 4 hours before taking CD measurements. […] Chemical denaturants. […] The peptide (3 mM stock) was mixed with water or different concentrations of guanidine-HCl or urea and allowed to incubate overnight before taking CD measurements. SDS was added to a peptide solution to a final concentration of 0.1% and incubated for 30 minutes.

[5] = system: nerve growth factor-differentiated rat PC12 cells; assay type: cell-based
From the text: The membranes also appear to be non-cytotoxic. The EAK16 peptide formed macroscopic membranes when added to a tissue culture of nerve growth factor-differentiated rat PC12 cells.

3T3 = experiment: Cell attachment to biopolymer sheets, normal or Ca++ and Mg++ free medium (Table 6); assay type: cell-based, mouse; parameters: key: ++++: strong attachment; +++: moderate attachment; ++: weak attachment; +/−: little or no attachment
Method: Cells were pretreated in serum-free medium containing 30 μg/ml cyclohexamide for 2 hours before introduction to the peptide membranes. The cells used for the calcium and magnesium-free condition were pre-equilibrated in Ca^++ and Mg^++ free medium containing 5 mM EDTA for 15 minutes before introduction to the peptide membranes. Cells were allowed to attach to the peptide membranes for 30 minutes, 1 and 8 hours at 37° C. The attached cells were shaken for […] on a rotary rocker at 60 r.p.m., then scored under phase contrast microscopy.

CC(=O)N[C@@H](C)C(=O)N[C@@H](CCC(=O)O)C(=O)N[C@@H](C)C(=O)N[C@@H](CCC(=O)O)C(=O)N[C@@H](C)C(=O)N[C@@H](CCCCN)C(=O)N[C@@H](C)C(=O)N[C@@H](CCCCN)C(=O)N[C@@H](C)C(=O)N[C@@H](CCC(=O)O)C(=O)N[C@@H](C)C(=O)N[C@@H](CCC(=O)O)C(=O)N[C@@H](C)C(=O)N[C@@H](CCCCN)C(=O)N[C@@H](C)C(=O)N[C@@H](CCCCN)C(N)=O [EAK16] (Ac-AEAEAKAKAEAEAKAK-NH2)
neurite outgrowth of NGF-treated PC12 cells, in words (PC12 cells; NGF-treated PC12 cells on membranes): little neurite processes; also recorded: little neurite outgrowth
Neurite outgrowth, untreated, 14 days (PC12 cells; PC12 cells without NGF, 14 days): − (no neurite outgrowth)
formation of macroscopic membranes ([1]; identical conditions, in words): could undergo self-assembly
membranous structure in Water ([1]; water): −
neurite outgrowth on biopolymers [2]: not on EAK16-based biopolymers
nucleotide hydrolysis activity [3]: partial nucleotide hydrolysis activity
β-sheet structure on dilution of the peptide ([4]; 0.625 to 20 μM in water): not significantly affected by dilution of the peptide
CD spectra over temperature ([4]; 25, 37, 55, 70 and 90° C.): unaffected over the range of 25-90 °C
Ratio [θ2]/[θ1] ([4]; 25 ° C.): 3.9
[θ2] λ2 195 nm ([4]; 25 ° C.): 62 X1,000
−[θ1] λ1 218 nm ([4]; 25 ° C.): 16 X1,000
Ratio [θ2]/[θ1] ([4]; 37 ° C.): 4.0
[θ2] λ2 195 nm ([4]; 37 ° C.): 60 X1,000
−[θ1] λ1 218 nm ([4]; 37 ° C.): 15 X1,000
Ratio [θ2]/[θ1] ([4]; 55 ° C.): 3.9
[θ2] λ2 195 nm ([4]; 55 ° C.): 55 X1,000
−[θ1] λ1 218 nm ([4]; 55 ° C.): 14 X1,000
Ratio [θ2]/[θ1] ([4]; 70 ° C.): 4.1
[θ2] λ2 195 nm ([4]; 70 ° C.): 54 X1,000
−[θ1] λ1 218 nm ([4]; 70 ° C.): 13 X1,000
Ratio [θ2]/[θ1] ([4]; 90 ° C.): 4.0
[θ2] λ2 195 nm ([4]; 90 ° C.): 50 X1,000
−[θ1] λ1 218 nm ([4]; 90 ° C.): 12.5 X1,000
β-sheet structure in chemical denaturants (CD spectra) ([4]; SDS at 90° C., 1-7 M guanidine-HCl or 8 M urea at room temperature for over 16 hours): not significantly affected
decrease of mean residue ellipticity (−[θ]218 nm), thermal profile ([4]; over 25-90° C.): 22%
ratios of ellipticity at 194 nm/217 nm ([4]; over the temperature range of 25-90° C.): approximately 4.0
decrease of ellipticity (−[θ]218 nm), pH profile ([4]; pH 1.5 to 3, 7 and 11): less than 10%
effect on appearance or rate of growth of the cells [5]: did not affect the appearance or rate of growth of the cells
cell attachment (3T3; 3T3, 30 min, Ca^++ & Mg^++ free, EDTA serum-free + Cyclohex): ++++
cell attachment (3T3; 3T3, 30 min, Normal Ca^++ & Mg^++ serum-free + Cyclohex): ++++
cell attachment (3T3; 3T3, 60 min, Ca^++ & Mg^++ free, EDTA serum-free + Cyclohex): ++++
cell attachment (3T3; 3T3, 60 min, Normal Ca^++ & Mg^++ serum-free + Cyclohex): ++++
